Test [1] concerns the target T1, Translocator protein (Rattus norvegicus, UniProt P16257). In words: Inhibition of [3H]Ro-5-4864 binding to mitochondrial rat testis Peripheral type benzodiazepine receptor (PBR).
The target in test [2] is T1, Translocator protein. Briefly: Inhibition of [3H]PK11195 binding to Peripheral type benzodiazepine receptor (PBR) in rat cortex homogenate by 50%.
Test [3] concerns the target T1, Translocator protein. In words: Inhibition of [3H]PK11195 binding to mitochondrial rat testis Peripheral type benzodiazepine receptor (PBR).
Test [4] is described as follows: Stimulatory effect on progesterone biosynthesis in MA10 leydig cells. In kind it is functional, Mus musculus.

The results in this text go back to ChEMBL document CHEMBL1135787, “Synthesis of new molecular probes for investigation of steroid biosynthesis induced by selective interaction with peripheral type benzodiazepine receptors (PBR)” (J Med Chem, 2002).

T1 sequence (P16257 whole entry, looked up): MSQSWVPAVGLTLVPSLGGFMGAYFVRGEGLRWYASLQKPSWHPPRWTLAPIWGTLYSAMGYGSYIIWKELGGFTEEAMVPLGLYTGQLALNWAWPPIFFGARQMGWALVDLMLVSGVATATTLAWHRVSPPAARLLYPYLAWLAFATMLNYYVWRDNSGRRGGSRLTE

On to `CN1CCN(C(=O)OC2=C(c3ccccc3)Oc3ccccc3-n3cccc32)CC1`, for which the Ki on Translocator protein [1] worked out at 15 nM; at Translocator protein [2], 7.2 nM; on Translocator protein [3], 29 nM. In test [4], the Progesterone production is 3.8 ng 2hr-1 (10e5*cells)-1.

For the compound `CCN(CC)C(=O)OC1=C(c2ccccc2)Cc2ccccc2-n2cccc21`, the affinity on Translocator protein [2], expressed as Ki, was 5.7 nM.

In the case of `CC(=O)OC1=C(c2cccc(C)c2)Oc2ccccc2-n2cccc21`, affinity at Translocator protein [2] was put at a Ki of 2.5 nM.

In the case of `CCN(CC)C(=O)OC1=C(c2ccccc2)Oc2cccnc2-n2cccc21`, the Ki at Translocator protein [1] came to 22 nM; on Translocator protein [2], 1.77 nM; at Translocator protein [3], 11 nM. In test [4], the Progesterone production is 3.5 ng 2hr-1 (10e5*cells)-1.

`CCN(CC)C(=O)OC1=C(c2cccs2)Oc2cccnc2-n2cccc21` came in with a Ki at Translocator protein [2] of 0.23 nM.

In the case of `CCN(CC)C(=O)OC1=C(c2cccc(C)c2)Oc2cccnc2-n2cccc21`, the affinity at Translocator protein [2], expressed as Ki, was 0.56 nM.

In the case of `O=C1CN=C(c2ccccc2Cl)c2cc([N+](=O)[O-])ccc2N1` [CLONAZEPAM], the Progesterone production in test [4] was 2.3 ng 2hr-1 (10e5*cells)-1.

As for `O=C(NC1CC1)OC1=C(c2ccccc2)Oc2ccccc2-n2cccc21`, the results for the inhibition constant (Ki) on Translocator protein [1], on Translocator protein [2] and on Translocator protein [3] were 0.47 nM, 2.21 nM and 0.31 nM, respectively. In addition, the Progesterone production in test [4] is listed as 3.5 ng 2hr-1 (10e5*cells)-1.

With `CCN(C)C(=O)OC1=C(c2ccccc2)Oc2ccccc2-n2cccc21`, on Translocator protein [2], the affinity, expressed as Ki, was 0.78 nM.

For `CCNC(=O)OC1=C(c2ccc(C)cc2)Oc2ccccc2-n2cccc21`, the affinity at Translocator protein [2] corresponds to a Ki of 0.68 nM.

On to `CCC(C)N(C)C(=O)c1cc2ccccc2c(-c2ccccc2Cl)n1` (configuration not stated) [PK-11195], for which the Progesterone production in test [4] was 3.4 ng 2hr-1 (10e5*cells)-1.

For `CCNC(=O)OC1=C(c2ccccc2)Oc2c(Cl)cccc2-n2cccc21`, at Translocator protein [2], the affinity corresponds to a Ki of 0.18 nM.

Compound `CCCCN(C)C(=O)OC1=C(c2ccccc2)Oc2ccccc2-n2cccc21` displayed a Ki at Translocator protein [2] of 0.92 nM.

At Translocator protein [2], `CCN(CC)C(=O)OC1=C(c2cccc(C)c2)Oc2ccccc2-n2cccc21` came in with a Ki of 1.2 nM.

In the case of `CCNC(=O)OC1=C(c2ccccc2)Oc2ccccc2-n2cccc21`, the Ki on Translocator protein [1] came to 0.1 nM; at Translocator protein [2] it was 0.11 nM; at Translocator protein [3], 0.2 nM. For the same compound, the Progesterone production in test [4] is listed as 3.3 ng 2hr-1 (10e5*cells)-1.

`CCN(CC)C(=O)OC1=C(c2cccs2)Oc2ccccc2-n2cccc21` yielded a Ki at Translocator protein [2] of 11.5 nM.

Take `O=C(OC1=C(c2ccccc2)Oc2ccccc2-n2cccc21)N1CCC1`: the Ki on Translocator protein [1] stood at 4.3 nM; at Translocator protein [2], 6.03 nM; at Translocator protein [3], 6 nM. Moreover, the Progesterone production in test [4] is recorded as 3.5 ng 2hr-1 (10e5*cells)-1.

Take `CCN(CC)C(=O)OC1=C(c2cc(F)cc(F)c2)Oc2ccccc2-n2cccc21`: affinity at Translocator protein [2] was put at a Ki of 1.26 nM.

Turning to `Cc1ccc(C2=C(OC(=O)N(C)C)c3cccn3-c3ncccc3O2)cc1`, affinity on Translocator protein [2] was put at a Ki of 0.44 nM.

Compound `CC(=O)OC1=C(c2ccc(C)cc2)Oc2cccnc2-n2cccc21` displayed a Ki on Translocator protein [2] of 13.5 nM.

`CCCN(C)C(=O)OC1=C(c2ccccc2)Oc2ccccc2-n2cccc21`: the Ki at Translocator protein [2] is 0.69 nM.

On to `CCCNC(=O)OC1=C(c2ccccc2)Oc2ccccc2-n2cccc21`, for which, on Translocator protein [2], affinity was put at a Ki of 0.91 nM.

For orientation: Ki means a measure of affinity in units of concentration, obtained from inhibition or displacement. Read a low Ki as tighter binding.
